Experimental data from US20220235064A1 (WELLMARKER BIO CO., LTD., priority 2019, published 2022).

Columns and labels:
RON tyrosine kinase = biological target: T1, RON tyrosine kinase (Homo sapiens, UniProt Q04912); assay: Enzyme inhibitory activity against RON tyrosine kinase (TR-FRET); format: biochemical; conditions: RON (Carna Bioscience)
T1 construct: purchased Carna Bioscience
Procedure: Experimental Example 1: Measurement of Enzyme Inhibitory Activity Against RON Tyrosine Kinase
To measure enzyme inhibitory activity of the example compounds against RON, IC50 values of the compounds were measured using fluorescence resonance energy transfer (FRET).
Specifically, first, RON (Carna Bioscience) was diluted in a kinase assay buffer (50 mM HEPES pH 7.5, 1 mM EGTA, 10 mM MgCl2, 2 mM DTT, and 0.01% Tween-20) to be at a concentration (0.4 nM) that is twice the final reaction concentration. The dilute was added to a 384-well-plate at 5 μl per well. Each of the example compounds was prepared at a concentration of 1 mM in 100% DMSO and diluted 8 times in a stepwise manner through 10-fold dilution. Each compound was diluted in a kinase assay buffer to be at a concentration that is 4 times the final reaction concentration. The dilute was added to a 384-well-plate at 2.5 μl per well, and incubation was performed at room temperature for 15 minutes.
Thereafter, an ATP solution (Sigma Aldrich) prepared at a concentration of 0.25 M was diluted in a kinase assay buffer to be at a concentration (60 μM) that is 4 times the final reaction concentration. Dilution of a tyrosine peptide substrate (Perkin-Elmer) was performed therein to be at a concentration (400 nM) that is 4 times the final reaction concentration. The dilute was added to a 384-well-plate at 2.5 µl per well. Reaction was allowed to proceed for 60 minutes by incubating the 384-well-plate at room temperature. Thereafter, EDTA (Sigma Aldrich) was diluted in a TR-FRET detection buffer (Perkin-Elmer) to be at a concentration (20 mM) that is twice the final reaction concentration. Dilution of a Europium-containing phosphotyrosine antibody (Perkin-Elmer) was performed in the diluted EDTA solution to be at a concentration (4 nM) that is twice the final reaction concentration, so that a stop solution for RON reaction was prepared.
The stop solution was added to the 384-well-plate at 10 μl per well to quench the reaction, and incubation was performed at room temperature for 60 minutes. Then, the 384-well-plate was read on a Victor X5 (Perkin-Elmer) plate reader. Here, the excitation wavelength was 340 nm, and the emission wavelengths were 620 nm and 665 nm. An IC50 value of the compound was derived using GraphPad Prism 5 program, in which the IC50 was derived by expressing emission energy at the wavelength of 665 nm as a function of the compound concentration.

[1] = test system: cancer cell line KM12C, in which RON is activated; assay: Cell-killing efficacy in RON-activated cancer cell line (trypan blue); format: cell-based; conditions: Homo sapiens, 48 hours, trypan blue, n=2, read-out: Cell death (%) Cancer cell line KM12C
Procedure: Experimental Example 3: Measurement of Cell-Killing Efficacy of Example Compounds in RON-Activated Cancer Cell Line
The cancer cell line KM12C (80015, KCLB, MEM+10% FBS), in which RON is activated, was dispensed into each 60 mm^2 dish at 1×10^5 cells. After 24 hours, the dish was treated with each of the example compounds at a concentration of 1 μM or 5 μM while performing medium exchange, and then reaction was allowed to proceed for 48 hours. After 48 hours, centrifugation was performed for 4 minutes at 1,500 rpm to collect cells and cell fluid. Thereafter, living cells and dead cells were quantified (n=2) using a trypan blue solution (15250-061, Gibco), and statistical analysis was performed using Excel-T-test. Here, as a negative control, only a solvent (0.100 DMSO) was used; and as a positive control, N-(4-(2-amino-3-chloropyridin-4-yloxy)-3-fluorophenyl)-4-ethoxy-1-(4-fluorophenyl)-2-oxo-1,2-dihydropyridine-3-carboxamide, which is the compound of Example 1 in WO 2008/058229 A1, was used.

[2] = test system: cancer cell line KM12C, in which RON is activated; assay: Cell growth inhibitory ability in RON-activated cancer cell line (MTS); format: cell-based; conditions: Homo sapiens, 48 hours, absorbance 490 nm
Procedure: Experimental Example 2: Identification of Cell Growth Inhibitory Ability of Example Compounds in RON-Activated Cancer Cell Line
The cancer cell line KM12C (80015, KCLB, MEM+1K° FBS), in which RON is activated, was treated with each of the example compounds at a concentration of 10 μM, and then reaction was allowed to proceed for 48 hours. 24 hours after completion of the reaction, 20 μl of MTS solution (CellTiter 96 Aqueous One Solution Cell Proliferation Assay, product number: G3581, Promega) was added to each well, and then incubation was performed at a temperature of 37° C. in 50 CO2 incubator for 4 hours. Then, an IC50 value of the compound was derived by measuring its absorbance value at a wavelength of 490 nm using a Victor X5 plate reader. Here, as a positive control, N-(4-(2-amino-3-chloropyridin-4-yloxy)-3-fluorophenyl)-4-ethoxy-1-(4-fluorophenyl)-2-oxo-1,2-dihydropyridine-3-carboxamide, which is the compound of Example 1 in WO 2008/058229 A1, was used.

T1 sequence (Q04912 25-1400): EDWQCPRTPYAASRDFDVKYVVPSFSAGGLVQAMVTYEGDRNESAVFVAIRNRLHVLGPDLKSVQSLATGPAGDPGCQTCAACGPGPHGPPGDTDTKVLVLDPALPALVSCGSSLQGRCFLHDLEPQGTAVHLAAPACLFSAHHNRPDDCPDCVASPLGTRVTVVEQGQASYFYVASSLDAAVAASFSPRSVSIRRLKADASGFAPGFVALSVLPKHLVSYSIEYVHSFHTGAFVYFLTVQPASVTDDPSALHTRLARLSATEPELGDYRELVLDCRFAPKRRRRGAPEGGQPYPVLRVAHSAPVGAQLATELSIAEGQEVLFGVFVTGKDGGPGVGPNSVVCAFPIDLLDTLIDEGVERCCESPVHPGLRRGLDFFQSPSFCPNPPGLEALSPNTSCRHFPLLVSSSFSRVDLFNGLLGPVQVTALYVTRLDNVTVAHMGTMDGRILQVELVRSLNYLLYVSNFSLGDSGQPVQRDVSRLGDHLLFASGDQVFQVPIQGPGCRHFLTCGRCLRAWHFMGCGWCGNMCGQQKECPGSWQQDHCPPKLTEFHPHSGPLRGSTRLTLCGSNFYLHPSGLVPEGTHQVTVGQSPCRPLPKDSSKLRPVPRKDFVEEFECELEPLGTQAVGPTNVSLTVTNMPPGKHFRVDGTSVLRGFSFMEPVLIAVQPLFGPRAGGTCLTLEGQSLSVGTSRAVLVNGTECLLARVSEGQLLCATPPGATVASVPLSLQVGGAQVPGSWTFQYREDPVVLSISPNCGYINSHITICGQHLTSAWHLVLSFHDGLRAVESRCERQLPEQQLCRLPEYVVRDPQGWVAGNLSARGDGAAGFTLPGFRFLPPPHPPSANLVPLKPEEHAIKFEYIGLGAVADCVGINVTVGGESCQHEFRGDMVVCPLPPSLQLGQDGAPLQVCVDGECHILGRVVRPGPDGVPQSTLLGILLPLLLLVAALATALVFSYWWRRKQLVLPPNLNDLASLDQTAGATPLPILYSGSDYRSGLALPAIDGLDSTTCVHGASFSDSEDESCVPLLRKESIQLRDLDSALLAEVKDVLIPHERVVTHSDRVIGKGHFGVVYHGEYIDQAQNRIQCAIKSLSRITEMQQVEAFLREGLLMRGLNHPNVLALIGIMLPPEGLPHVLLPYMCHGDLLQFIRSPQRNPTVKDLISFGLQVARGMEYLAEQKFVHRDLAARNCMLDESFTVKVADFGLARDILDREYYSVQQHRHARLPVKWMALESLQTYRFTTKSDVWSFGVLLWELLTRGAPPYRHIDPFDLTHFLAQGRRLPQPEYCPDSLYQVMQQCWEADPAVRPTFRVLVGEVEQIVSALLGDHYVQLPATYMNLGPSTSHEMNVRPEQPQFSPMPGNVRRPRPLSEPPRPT

SMILES: Cn1cc(-c2cc3nccc(Oc4ccc(NC(=O)c5c6c(cn(-c7ccc(F)cc7)c5=O)CCO6)cc4F)c3s2)cn1 [Example 10, N-(3-Fluoro-4-((2-(1-methyl-1H-pyrazol-4-yl)thieno[3,2-b]pyridin-7-yl)oxy)phenyl)-5-(4-fluorophenyl)-6-oxo-2,3,5,6-tetrahydrofuro[3,2-c]pyridine-7-carboxamide]
- IC50 (RON tyrosine kinase): 0.92 nM
- cytotoxicity at 1 µM [1]: 22%
- cytotoxicity at 5 µM [1]: 21.9%

SMILES: COC1CN(Cc2ccc(-c3cc4nccc(Oc5ccc(NC(=O)c6c7c(cn(-c8ccc(F)cc8)c6=O)CCO7)cc5F)c4s3)nc2)C1 [Example 14, N-(3-Fluoro-4-((2-(5-((3-methoxyazetidin-1-yl)methyl)pyridin-2-yl)thieno[3,2-b]pyridin-7-yl)oxy)phenyl)-5-(4-fluorophenyl)-6-oxo-2,3,5,6-tetrahydrofuro[3,2-c]pyridine-7-carboxamide]
- IC50 [2]: 2 nM
- cytotoxicity at 1 µM [1]: 13.6%
- cytotoxicity at 5 µM [1]: 21.5%

SMILES: COC1(C)CN(Cc2ccc(-c3cc4nccc(Oc5ccc(NC(=O)c6c7c(cn(-c8ccc(F)cc8)c6=O)CCO7)cc5F)c4s3)nc2)C1 [Example 16, N-(3-Fluoro-4-((2-(5-((3-methoxy-3-methylazetidin-1-yl)methyl)pyridin-2-yl)thieno[3,2-b]pyridin-7-yl)oxy)phenyl)-5-(4-fluorophenyl)-6-oxo-2,3,5,6-tetrahydrofuro[3,2-c]pyridine-7-carboxamide]
- IC50 [2]: 1 nM
- cytotoxicity at 1 µM [1]: 20.4%
- cytotoxicity at 5 µM [1]: 24.2%

SMILES: O=C(Nc1ccc(Oc2ccnc3cc(-c4ccc(CN5CC(F)C5)cn4)sc23)c(F)c1)c1c2c(cn(-c3ccc(F)cc3)c1=O)CCO2 [Example 17, N-(3-Fluoro-4-((2-(5-((3-fluoroazetidin-1-yl)methyl)pyridin-2-yl)thieno[3,2-b]pyridin-7-yl)oxy)phenyl)-5-(4-fluorophenyl)-6-oxo-2,3,5,6-tetrahydrofuro[3,2-c]pyridine-7-carboxamide]
- IC50 [2]: 1 nM
- cytotoxicity at 1 µM [1]: 14%
- cytotoxicity at 5 µM [1]: 27.7%

SMILES: O=C(Nc1ccc(Oc2ccnc3cc(-c4ccc(CN5CC(F)(F)C5)cn4)sc23)c(F)c1)c1c2c(cn(-c3ccc(F)cc3)c1=O)CCO2 [Example 18, N-(4-((2-(5-((3,3-Difluoroazetidin-1-yl)methyl)pyridin-2-yl)thieno[3,2-b]pyridine-7-yl)oxy)-3-fluorophenyl)-5-(4-fluorophenyl)-6-oxo-2,3,5,6-tetrahydrofuro[3,2-c]pyridine-7-carboxamide]
- IC50 [2]: 3 nM
- cytotoxicity at 1 µM [1]: 10.9%
- cytotoxicity at 5 µM [1]: 11.3%

SMILES: N#CC1CN(Cc2ccc(-c3cc4nccc(Oc5ccc(NC(=O)c6c7c(cn(-c8ccc(F)cc8)c6=O)CCO7)cc5F)c4s3)nc2)C1 [Example 19, N-(4-((2-(5-((3-Cyanoazetidin-1-yl)methyl)pyridin-2-yl)thieno[3,2-b]pyridin-7-yl)oxy)-3-fluorophenyl)-5-(4-fluorophenyl)-6-oxo-2,3,5,6-tetrahydrofuro[3,2-c]pyridine-7-carboxamide]
- IC50 [2]: 1 nM
- cytotoxicity at 1 µM [1]: 15.7%
- cytotoxicity at 5 µM [1]: 21.9%

SMILES: CC1(O)CCN(Cc2ccc(-c3cc4nccc(Oc5ccc(NC(=O)c6c7c(cn(-c8ccc(F)cc8)c6=O)CCO7)cc5F)c4s3)nc2)C1 (centres unmarked) [Example 24, N-(3-Fluoro-4-((2-(5-((3-hydroxy-3-methylpyrrolidin-1-yl)methyl)pyridin-2-yl)thieno[3,2-b]pyridin-7-yl)oxy)phenyl)-5-(4-fluorophenyl)-6-oxo-2,3,5,6-tetrahydrofuro[3,2-c]pyridine-7-carboxamide]
- IC50 [2]: 1 nM
- cytotoxicity at 1 µM [1]: 18.6%
- cytotoxicity at 5 µM [1]: 16.9%

SMILES: COC1CCN(Cc2ccc(-c3cc4nccc(Oc5ccc(NC(=O)c6c7c(cn(-c8ccc(F)cc8)c6=O)CCO7)cc5F)c4s3)nc2)C1 (centres unmarked) [Example 25, N-(3-Fluoro-4-((2-(5-((3-methoxypyrrolidin-1-yl)methyl)pyridin-2-yl)thieno[3,2-b]pyridin-7-yl)oxy)phenyl)-5-(4-fluorophenyl)-6-oxo-2,3,5,6-tetrahydrofuro[3,2-c]pyridine-7-carboxamide]
- IC50 [2]: 1 nM
- cytotoxicity at 1 µM [1]: 17.5%
- cytotoxicity at 5 µM [1]: 21%

SMILES: COc1ccc2nccc(Oc3ccc(NC(=O)c4c5c(cn(-c6ccc(F)cc6)c4=O)CCO5)cc3F)c2c1 [Example 44, N-(3-Fluoro-4-((6-methoxyquinolin-4-yl)oxy)phenyl)-5-(4-fluorophenyl)-6-oxo-2,3,5,6-tetrahydrofuro[3,2-c]pyridine-7-carboxamide]
- IC50 (RON tyrosine kinase): 1.87 nM
- cytotoxicity at 1 µM [1]: 16%
- cytotoxicity at 5 µM [1]: 21.4%

SMILES: COc1ccc2c(Oc3ccc(NC(=O)c4c5c(cn(-c6ccc(F)cc6)c4=O)CCO5)cc3F)ccnc2c1 [Example 45, N-(3-Fluoro-4-((7-methoxyquinolin-4-yl)oxy)phenyl)-5-(4-fluorophenyl)-6-oxo-2,3,5,6-tetrahydrofuro[3,2-c]pyridine-7-carboxamide]
- IC50 (RON tyrosine kinase): 1.5 nM
- cytotoxicity at 1 µM [1]: 16.3%
- cytotoxicity at 5 µM [1]: 18.9%

SMILES: COc1cc2nccc(Oc3ccc(NC(=O)c4c5c(cn(-c6ccc(F)cc6)c4=O)CCO5)cc3F)c2cc1C(=O)N(C)C [Example 49, N-(4-((6-(Dimethylcarbamoyl)-7-methoxyquinolin-4-yl)oxy)-3-fluorophenyl)-5-(4-fluorophenyl)-6-oxo-2,3,5,6-tetrahydrofuro[3,2-c]pyridine-7-carboxamide]
- IC50 (RON tyrosine kinase): 2.98 nM
- cytotoxicity at 1 µM [1]: 9.98%
- cytotoxicity at 5 µM [1]: 11.2%

SMILES: CC1CCN(CCCOc2ccc3c(Oc4ccc(NC(=O)c5c6c(cn(-c7ccc(F)cc7)c5=O)CCO6)cc4F)ccnc3c2)CC1 [Example 162]
- IC50 (RON tyrosine kinase): 1.18 nM
- cytotoxicity at 1 µM [1]: 16.4%
- cytotoxicity at 5 µM [1]: 22.6%

SMILES: O=C(Nc1ccc(Oc2ccnc3cc(OCCN4CCOCC4)c(C(F)(F)F)cc23)c(F)c1)c1c2c(cn(-c3ccc(F)cc3)c1=O)CCO2 [Example 169, N-(3-Fluoro-4-((7-(2-morpholinoethoxy)-6-(trifluoromethyl)quinolin-4-yl)oxy)phenyl)-5-(4-fluorophenyl)-6-oxo-2,3,5,6-tetrahydrofuro[3,2-c]pyridine-7-carboxamide]
- IC50 (RON tyrosine kinase): > 100 nM

SMILES: O=C(Nc1ccc(Oc2ccnc3cc(OCCCN4CCOCC4)c(C(F)(F)F)cc23)c(F)c1)c1c2c(cn(-c3ccc(F)cc3)c1=O)CCO2 [Example 170, N-(3-Fluoro-4-((7-(3-morpholinopropoxy)-6-(trifluoromethyl)quinolin-4-yl)oxy)phenyl)-5-(4-fluorophenyl)-6-oxo-2,3,5,6-tetrahydrofuro[3,2-c]pyridine-7-carboxamide]
- IC50 (RON tyrosine kinase): > 100 nM
